The record followed here is patent US9115143B2, “Substituted indole derivatives as gamma secretase modulators” (Janssen Pharmaceuticals, Inc., priority 2011, dated 2015).

In one test the test system is Aβ40. Nature of the test: In vivo efficacy B-1b/B-2b: brain soluble Aβ40, MSD electrochemiluminescence multiplex. As to conditions: mouse brain soluble fraction, dose 30 mg/kg oral dosing, 4 h after dose; untreated control set at 100; read-out: Aβ40 (% vs Ctrl)_Mean. The source says:
(§1) To determine whether acute administration of an Aβ42 lowering agent would reduce Aβ42 levels in vivo, non-transgenic rodents, e.g. mice or rats were used. Animals treated with the Aβ42 lowering agent were examined and compared to those untreated or treated with vehicle and brain levels of soluble Aβ42, Aβ40, Aβ38, and Aβ37 were quantitated by Meso Scale Discovery's (MSD) electrochemiluminescence detection technology. Treatment periods varied from hours (h) to days and were adjusted based on the results of the Aβ42 lowering once a time course of onset of effect could be established.
(§2) A typical protocol for measuring Aβ42 lowering in vivo is shown but it is only one of many variations that could be used to optimize the levels of detectable Aβ. For example, Aβ42 lowering compounds were formulated in 20% of Captisol® (a sulfobutyl ether of β-cyclodextrin) in water or 20% hydroxypropyl β cyclodextrin. The Aβ42 lowering agents were administered as a single oral dose or by any acceptable route of administration to overnight fasted animals. After 4 h, the animals were sacrificed and Aβ42 levels were analysed.
(§3) Blood was collected by decapitation and exsanguinations in EDTA-treated collection tubes. Blood was centrifuged at 1900 g for 10 minutes (min) at 4° C. and the plasma recovered and flash frozen for later analysis. The brain was removed from the cranium and hindbrain. The cerebellum was removed and the left and right hemisphere were separated. The left hemisphere was stored at −18° C. for quantitative analysis of test compound levels. The right hemisphere was rinsed with phosphate-buffered saline (PBS) buffer and immediately frozen on dry ice and stored at −80° C. until homogenization for biochemical assays.
(§4) Mouse brains from non-transgenic animals were resuspended in 8 volumes of 0.4% DEA (diethylamine)/50 mM NaCl containing protease inhibitors (Roche-11873580001 or 04693159001) per gram of tissue, e.g. for 0.158 g brain, add 1.264 ml of 0.4% DEA. All samples were homogenized in the FastPrep-24 system (MP Biomedicals) using lysing matrix D (MPBio #6913-100) at 6 m/s for 20 seconds. Homogenates were centrifuged at 20800×g for 5 min and supernatants collected. Supernatants were centrifuged at 221.300×g for 50 min. The resulting high speed supernatants were then transferred to fresh eppendorf tubes. Nine parts of supernatant were neutralized with 1 part 0.5 M Tris-HCl pH 6.8 and used to quantify Aβ.
(§5) To quantify the amount of Aβ42, Aβ40, Aβ38, and Aβ37 in the soluble fraction of the brain homogenates, simultaneous specific detection of Aβ42, Aβ40, Aβ38, and Aβ37 was performed using MSD's electro-chemiluminescence multiplex detection technology. In this assay purified monoclonal antibodies specific for Abeta37 (JRD/Aβ37/3), Abeta38 (J&JPRD/Aβ38/5), Abeta40 (JRF/cAβ40/28), and Abeta42 (JRF/cAβ42/26) were coated on MSD 4-plex plates. Briefly, the standards (a dilution of synthetic Aβ42, Aβ40, Aβ38, and Aβ37) were prepared in 1.5 ml Eppendorf tube in Ultraculture, with final concentrations ranging from 10000 to 0.3 pg/m. The samples and standards were co-incubated with Sulfo-tag labelled JRF/rAβ/2 antibody to the N-terminus of Aβ as detector antibody. 50 μl of conjugate/sample or conjugate/standards mixtures were then added to the antibody-coated plate. The plate was allowed to incubate overnight at 4° C. in order to allow formation of the antibody-amyloid complex. Following this incubation and subsequent wash steps the assay was finished by adding read buffer according to the manufacturer's instructions (Meso Scale Discovery, Gaitherburg, Md.).
(§6) The SULFO-TAG emits light upon electrochemical stimulation initiated at the electrode. MSD Sector instrument SI6000 was used for signal read-out.
The results are shown in Table 5 (dose 30 mg/kg oral dosing) (value for untreated animals as control (Ctrl) was set at 100): […]

The test system of a further test is Aβ42. Nature of the test: In vivo efficacy B-1b: brain soluble Aβ42, MSD electrochemiluminescence multiplex. The conditions noted are these: mouse brain soluble fraction, dose 30 mg/kg oral dosing, 4 h after dose; untreated control set at 100; read-out: Aβ42 (% vs Ctrl)_Mean.
Description: as §1, §2, §3, §4, §5, §6
In this model a Aβ42 lowering compared to untreated animals would be advantageous, in particular a Aβ42 lowering with at least 10%, more in particular a Aβ42 lowering with at least 20%. […]

On to `COc1c(C#N)ccc2[nH]c(-c3nc4n(n3)CCOC4c3c(F)cccc3Cl)cc12` (single isomer, unassigned) [Compound 117, 2-[8-(2-chloro-6-fluorophenyl)-5,6-dihydro-8H-[1,2,4]triazolo[5,1-c][1,4]oxazin-2-yl]-4-methoxy-1H-indole-5-carbonitrile], for which the response vs control in vivo at 30 mg/kg in the test on Aβ40 was determined as 112%; with Aβ42 it was 79%.

For the molecule `COc1c(C#N)ccc2[nH]c(-c3cn4c(n3)C(c3ccc(F)cc3C)OCC4)cc12` (centres unmarked) [Compound 47, 2-[8-(4-fluoro-2-methylphenyl)-5,6-dihydro-8H-imidazo[2,1-c][1,4]oxazin-2-yl]-4-methoxy-1H-indole-5-carbonitrile], the results for the response vs control in vivo at 30 mg/kg with Aβ40 and in the test on Aβ42 were 56% and 55%, respectively.

Take `COc1c(C#N)ccc2[nH]c(-c3nc4n(n3)CCOC4c3ccccc3C(F)(F)F)cc12` (centres unmarked) [Compound 55, 2-[5,6-dihydro-8-[2-(trifluoromethyl)phenyl]-8H-[1,2,4]triazolo[5,1-c][1,4]oxazin-2-yl]-4-methoxy-1H-indole-5-carbonitrile]: the response vs control in vivo at 30 mg/kg in the test with Aβ40 was 94%; in the test with Aβ42 it was 68%.

As to `Cc1cn(-c2ccc3[nH]c(-c4nc5n(n4)CCCC5c4ccc(F)cc4C)nc3c2)cn1` (centres unmarked) [Compound 176, 8-(4-fluoro-2-methylphenyl)-5,6,7,8-tetrahydro-2-[5-(4-methyl-1H-imidazol-1-yl)-1H-benzimidazol-2-yl]-[1,2,4]triazolo[1,5-a]pyridine], the response vs control in vivo at 30 mg/kg in the test on Aβ40 is 111%; with Aβ42 it was 103%.
